Results from paper PMC8286840, “Identifying SARS-CoV-2 antiviral compounds by screening for small molecule inhibitors of Nsp3 papain-like protease” (Biochemical Journal, 2021).
Counter-ions that a name gives are not always drawn. Like-named read-outs stand apart in the source and are kept apart here.

Tests used:
[1] = molecular target: T1, SARS-CoV-2 PLpro (nsp3 1564–1878) (Severe acute respiratory syndrome coronavirus 2, UniProt P0DTD1); assay: biochemical; parameters: FRET-quenched peptide (Pro3) cleavage by PLpro, 10 min pre-incubation, slope over 20 min, normalised to no-compound control; settings: low concentration screen, read-out: % of control remaining
[2] = molecular target: T1, SARS-CoV-2 PLpro (nsp3 1564–1878); assay: biochemical; parameters: FRET-quenched peptide (Pro3) cleavage by PLpro, 10 min pre-incubation, slope over 20 min, normalised to no-compound control; settings: high concentration screen, read-out: % of control remaining

Q: Which results are given for `Cc1cc(C(C)(C)C)cc(C)c1CC1=NCCN1` [Xylometazoline hydrochloride]?
A: remaining activity at 1.25 µM ([1]; Well no.=1484): 96.8%; remaining activity at 3.75 µM ([2]; Well no.=1484): 96.2%

Q: For `O=C(NCCCCCCNC(=O)ON=C1CCCCC1)ON=C1CCCCC1` [RHC 80267], which remaining activity at 1.25 µM ([1]; Well no.=5818) is on record?
A: 96.6%

Q: And the remaining activity at 3.75 µM ([2]; Well no.=5818)?
A: 99.1%

Q: What does the source list for `CN([C@@H](Cc1ccc(OS(=O)(=O)c2cccc3cnccc23)cc1)C(=O)N1CCN(c2ccccc2)CC1)S(=O)(=O)c1cccc2cnccc12` [KN-62]?
A: remaining activity at 1.25 µM ([1]; Well no.=670): 97.4%; remaining activity at 1.25 µM ([1]; Well no.=2308): 99.3%; remaining activity at 3.75 µM ([2]; Well no.=670): 95.8%; remaining activity at 3.75 µM ([2]; Well no.=2308): 99%

Q: How did the remaining activity at 1.25 µM ([1]; Well no.=5103) turn out when `Nc1ncn([C@H]2C[C@H](O)[C@@H](CO)O2)c(=O)n1` [Decitabine] was run?
A: 102%

Q: What about the remaining activity at 3.75 µM ([2]; Well no.=5103) of the same compound?
A: 99.8%

Q: `CC(=O)Nc1ccc(NC(=S)NC(=O)c2ccc(C(C)(C)C)cc2)cc1` [Tenovin-1] was tested. Which remaining activity at 1.25 µM ([1]; Well no.=4784) did it give?
A: 95.1%

Q: What about the remaining activity at 1.25 µM ([1]; Well no.=7160) of the same compound?
A: 98.9%

Q: What about the remaining activity at 3.75 µM ([2]; Well no.=4784) of the same compound?
A: 96.5%

Q: Which results are given for `COC(=O)C1=C(C)NC(C)=C([N+](=O)[O-])C1c1ccccc1C(F)(F)F` (racemic)?
A: remaining activity at 1.25 µM ([1]; Well no.=133): 108%; remaining activity at 3.75 µM ([2]; Well no.=133): 105%

Q: Which remaining activity at 1.25 µM ([1]; Well no.=1972) does the source give for `C[C@]12CC[C@H](O)CC1=CC[C@@H]1[C@@H]2CC[C@]2(C)C(=O)CC[C@@H]12` [Dehydroepiandrosterone] here?
A: 94.1%

Q: And the remaining activity at 3.75 µM ([2]; Well no.=1972)?
A: 98.4%

Q: `Cc1cccc(-c2[nH]c(C(C)(C)C)nc2-c2ccc3nccnc3c2)n1` [SB 525334] was tested. Which remaining activity at 1.25 µM ([1]; Well no.=4901) did it give?
A: 99.5%

Q: What about the remaining activity at 3.75 µM ([2]; Well no.=4901) of the same compound?
A: 99.1%

Q: With `COc1ccccc1NC(=O)Nc1nc(-c2cccnc2)nc2ccccc12` [VUF 5574] as the compound, how does the remaining activity at 1.25 µM ([1]; Well no.=1384) read?
A: 101%

Q: And the remaining activity at 3.75 µM ([2]; Well no.=1384)?
A: 97.5%

Q: `O=C(O)CCCCCCCCCC(=O)O` [Undecanedioic acid] was tested. Which remaining activity at 1.25 µM ([1]; Well no.=6785) did it give?
A: 102%

Q: What about the remaining activity at 3.75 µM ([2]; Well no.=6785) of the same compound?
A: 99.4%

Q: For `O=C(Nc1cnc(-c2ccncc2F)c(-c2cccnc2)n1)C1CC1` [LAS101057], which remaining activity at 1.25 µM ([1]; Well no.=8599) is on record?
A: 105%

Q: And the remaining activity at 3.75 µM ([2]; Well no.=8599)?
A: 103%

Q: With `O=[N+]([O-])c1ccc(CNc2nc(NCc3cccc(C(F)(F)F)c3)nc3nc[nH]c23)cc1` [IP3K Inhibitor] as the compound, how does the remaining activity at 1.25 µM ([1]; Well no.=2477) read?
A: 103%

Q: What about the remaining activity at 3.75 µM ([2]; Well no.=2477) of the same compound?
A: 105%

Q: Which remaining activity at 1.25 µM ([1]; Well no.=1787) does the source give for `CNCCCC12CCC(c3ccccc31)c1ccccc12` [Maprotiline.HCl] here?
A: 95.1%

Q: What about the remaining activity at 3.75 µM ([2]; Well no.=1787) of the same compound?
A: 96.8%

Q: `C#CCN(C)Cc1ccccc1` [Pargyline hydrochloride] was tested. Which remaining activity at 1.25 µM ([1]; Well no.=1445) did it give?
A: 99.1%

Q: And the remaining activity at 3.75 µM ([2]; Well no.=1445)?
A: 98.9%

Q: For `CN(C(=O)OCC1c2ccccc2-c2ccccc21)[C@@H](Cc1ccccc1)C(=O)O` [Fmoc-N-Me-Phe-OH], which remaining activity at 1.25 µM ([1]; Well no.=7888) is on record?
A: 101%

Q: And the remaining activity at 3.75 µM ([2]; Well no.=7888)?
A: 102%

Q: Which remaining activity at 1.25 µM ([1]; Well no.=1516) does the source give for `COc1cc(Cc2cnc(N)nc2N)cc(OC)c1OC` [Trimethoprim] here?
A: 96%

Q: What about the remaining activity at 1.25 µM ([1]; Well no.=2006) of the same compound?
A: 99.3%

Q: What about the remaining activity at 3.75 µM ([2]; Well no.=1516) of the same compound?
A: 94.5%

Q: And the remaining activity at 3.75 µM ([2]; Well no.=2006)?
A: 97.8%

Q: What does the source list for `N[C@@H](Cn1ccc(=O)[nH]c1=O)C(=O)O` [S(-)-Willardiine]?
A: remaining activity at 1.25 µM ([1]; Well no.=1244): 100%; remaining activity at 3.75 µM ([2]; Well no.=1244): 99.9%

Q: For `CN(C)CCCN1c2ccccc2Sc2ccc(Cl)cc21` [Chlorpromazine hydrochloride], which remaining activity at 1.25 µM ([1]; Well no.=44) is on record?
A: 98.8%

Q: And the remaining activity at 3.75 µM ([2]; Well no.=44)?
A: 96.9%

Q: With `O=C(O)c1cc(-c2ccc(F)cc2F)ccc1O` [Diflunisal] as the compound, how does the remaining activity at 1.25 µM ([1]; Well no.=1984) read?
A: 102%

Q: What about the remaining activity at 3.75 µM ([2]; Well no.=1984) of the same compound?
A: 102%

Q: Which results are given for `C[C@@H](O)[C@@H]1NC(=O)[C@H](CCCCN)NC(=O)[C@@H](Cc2c[nH]c3ccccc23)NC(=O)[C@H](Cc2ccccc2)NC(=O)[C@@H](NC(=O)[C@H](N)Cc2ccccc2)CSSC[C@@H](C(=O)N[C@H](CO)[C@@H](C)O)NC1=O` [Octreotide]?
A: remaining activity at 1.25 µM ([1]; Well no.=1977): 103%; remaining activity at 3.75 µM ([2]; Well no.=1977): 107%

Q: `OCc1ccc(O)cc1` [4-Hydroxybenzyl alcohol] was tested. Which remaining activity at 1.25 µM ([1]; Well no.=6876) did it give?
A: 98.2%

Q: And the remaining activity at 3.75 µM ([2]; Well no.=6876)?
A: 95.1%

Q: `Cn1c(-c2ccc3c(c2)OCO3)cc(=O)c2ccccc21` [Graveoline] was tested. Which remaining activity at 1.25 µM ([1]; Well no.=3147) did it give?
A: 102%

Q: What about the remaining activity at 3.75 µM ([2]; Well no.=3147) of the same compound?
A: 104%

Q: Which results are given for `CC(C)C(C(=O)O)N1C(=O)/C(=C\c2ccc(Br)cc2)SC1=S` (centres unmarked) [BH3I-1]?
A: remaining activity at 1.25 µM ([1]; Well no.=6586): 98.6%; remaining activity at 3.75 µM ([2]; Well no.=6586): 99.7%

Q: Which remaining activity at 1.25 µM ([1]; Well no.=4781) does the source give for `NC(=O)N1CCC(CC(=O)N2CCC([C@H]3c4ncc(Br)cc4CCc4cc(Cl)cc(Br)c43)CC2)CC1` [Lonafarnib (SCH66336)] here?
A: 105%

Q: And the remaining activity at 3.75 µM ([2]; Well no.=4781)?
A: 101%

Q: Which remaining activity at 1.25 µM ([1]; Well no.=740) does the source give for `CCc1cccc2c3c([nH]c12)C(CC)(CC(=O)O)OCC3` (centres unmarked) [Etodolac] here?
A: 95.3%

Q: And the remaining activity at 3.75 µM ([2]; Well no.=740)?
A: 97.9%

Q: How did the remaining activity at 1.25 µM ([1]; Well no.=3213) turn out when `O=c1c(-c2ccc(O)cc2)coc2cc(O[C@@H]3O[C@H](CO)[C@@H](O)[C@H](O)[C@H]3O)cc(O)c12` [Genistin] was run?
A: 99.7%

Q: And the remaining activity at 3.75 µM ([2]; Well no.=3213)?
A: 97.9%

Q: How did the remaining activity at 1.25 µM ([1]; Well no.=1793) turn out when `CC[C@@H]1C(=O)OC[C@@H]1Cc1cncn1C` [Pilocarpine.HCl] was run?
A: 98.6%

Q: And the remaining activity at 1.25 µM ([1]; Well no.=3729)?
A: 101%

Q: What about the remaining activity at 3.75 µM ([2]; Well no.=1793) of the same compound?
A: 98.6%

Q: And the remaining activity at 3.75 µM ([2]; Well no.=3729)?
A: 105%

Q: Which remaining activity at 1.25 µM ([1]; Well no.=5085) does the source give for `O=C(NCC1CCOCC1)c1cnc(Nc2ccc(Cl)cc2Cl)nc1C(F)(F)F` [GW842166X] here?
A: 97.9%

Q: What about the remaining activity at 3.75 µM ([2]; Well no.=5085) of the same compound?
A: 100%

Q: Which results are given for `O=C(Nc1ccccc1Br)N[C@@H]1CCN(c2ccc(C(F)(F)F)cn2)C1` [SB705498]?
A: remaining activity at 1.25 µM ([1]; Well no.=4735): 103%; remaining activity at 3.75 µM ([2]; Well no.=4735): 106%

Q: How did the remaining activity at 1.25 µM ([1]; Well no.=7048) turn out when `CCN(CCCCOC(=O)c1ccc(OC)c(OC)c1)C(C)Cc1ccc(OC)cc1` (centres unmarked) [Mebeverine (hydrochloride)] was run?
A: 108%

Q: What about the remaining activity at 3.75 µM ([2]; Well no.=7048) of the same compound?
A: 101%

Q: What does the source list for `C=CCc1ccccc1OCC(O)CNC1(C)CCC(C(C)(C)NC(=O)CBr)CC1` (centres unmarked) [Bromoacetyl alprenolol menthane]?
A: remaining activity at 1.25 µM ([1]; Well no.=275): 91.4%; remaining activity at 3.75 µM ([2]; Well no.=275): 93.3%

Q: What does the source list for `CCc1ccc(NC(=O)Nc2c[nH]c3ccccc23)cc1` [H-151]?
A: remaining activity at 1.25 µM ([1]; Well no.=8555): 102%; remaining activity at 3.75 µM ([2]; Well no.=8555): 103%

Q: Which results are given for `COc1ccccc1O` [Guaiacol]?
A: remaining activity at 1.25 µM ([1]; Well no.=1626): 96.8%; remaining activity at 3.75 µM ([2]; Well no.=1626): 98.8%

Q: For `CO[C@@H]1[C@H](OC(=O)/C=C/C=C/C=C/C=C/C(=O)O)CC[C@]2(CO2)[C@H]1[C@@]1(C)O[C@@H]1CC=C(C)C` [Fumagillin], which remaining activity at 1.25 µM ([1]; Well no.=1621) is on record?
A: 103%

Q: And the remaining activity at 1.25 µM ([1]; Well no.=3283)?
A: 102%

Q: What about the remaining activity at 3.75 µM ([2]; Well no.=1621) of the same compound?
A: 100%

Q: And the remaining activity at 3.75 µM ([2]; Well no.=3283)?
A: 101%
